According to PMC12426595 (Cancer Research Communications, 2025):

Legend:
P-gp = conditions: cited from earlier work
[1] = In vivo DDI: pravastatin pharmacokinetics; conditions: male, C57BL/6, mouse, plasma, po, 20 mg/kg, C57BL/6 male, pravastatin 20 mg/kg oral
[2] = In vivo DDI: gilteritinib pharmacokinetics; set-up: species or system mouse; conditions: plasma, po, 30 mg/kg, gilteritinib 30 mg/kg oral
[3] = target: T1, BTK-NanoLuc Fusion Vector in HEK293 cells (Homo sapiens, UniProt Q06187); assay: NanoBRET intracellular binding assay, BTK; conditions: read-out: EC50 BTK (NanoBRET), positive control
T1 construct: host or cells: HEK293
T1 sequence (Q06187 whole entry, the tested form may be a part): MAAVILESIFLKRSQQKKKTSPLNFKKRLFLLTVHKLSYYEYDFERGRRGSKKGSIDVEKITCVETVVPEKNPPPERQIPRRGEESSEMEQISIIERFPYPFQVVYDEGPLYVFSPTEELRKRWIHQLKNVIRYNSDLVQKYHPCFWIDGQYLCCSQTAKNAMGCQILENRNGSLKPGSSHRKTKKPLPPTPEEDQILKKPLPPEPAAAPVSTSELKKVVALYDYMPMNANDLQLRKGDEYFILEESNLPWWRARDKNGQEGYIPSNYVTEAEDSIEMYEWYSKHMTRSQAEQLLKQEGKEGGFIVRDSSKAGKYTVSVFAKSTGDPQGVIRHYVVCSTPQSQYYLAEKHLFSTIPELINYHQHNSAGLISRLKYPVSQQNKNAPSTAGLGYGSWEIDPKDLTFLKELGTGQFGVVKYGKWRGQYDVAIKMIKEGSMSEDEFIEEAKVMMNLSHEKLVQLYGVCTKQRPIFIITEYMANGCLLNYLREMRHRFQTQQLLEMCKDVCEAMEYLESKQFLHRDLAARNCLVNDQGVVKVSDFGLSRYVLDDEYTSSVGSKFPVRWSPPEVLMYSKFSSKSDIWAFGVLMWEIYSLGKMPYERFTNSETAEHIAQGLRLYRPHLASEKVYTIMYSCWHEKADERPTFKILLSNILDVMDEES
Method: Intracellular binding was determined with a NanoBRET assay (Reaction Biology). […] The protein kinase inhibitors dasatinib and […] were used as positive controls.

[4] = female, C57BL/6, mouse, C57BL/6 female, perpetrator TL-895 3 mg/kg
[5] = female, C57BL/6, mouse, C57BL/6 female, perpetrator vehicle
[6] = female, NSG (NOD/SCID gamma), mouse, NSG female, perpetrator TL-895 3 mg/kg
[7] = female, NSG (NOD/SCID gamma), mouse, NSG female, perpetrator vehicle
[8] = male, C57BL/6, mouse, C57BL/6 male, perpetrator TL-895 3 mg/kg
[9] = male, C57BL/6, mouse, C57BL/6 male, perpetrator vehicle
[10] = male, NSG (NOD/SCID gamma), mouse, NSG male, perpetrator TL-895 3 mg/kg
[11] = male, NSG (NOD/SCID gamma), mouse, NSG male, perpetrator vehicle

## C=CC(=O)N1CCC[C@@H](n2nc(-c3ccc(Oc4ccccc4)cc3)c3c(N)ncnc32)C1 [ibrutinib]
P-gp
  effect of P-gp deficiency on overall exposure: only minimal effects

## CC[C@H](C)C(=O)O[C@H]1C[C@H](O)C=C2C=C[C@H](C)[C@H](CC[C@@H](O)C[C@@H](O)CC(=O)O)[C@H]21 [Pravastatin, pravastatin]
[1]; perpetrator TL-895 10 mg/kg
  AUC: 49.8 ± 7.6 ng·h/mL
  Cmax: 182 ± 31 ng/mL
[1]; perpetrator rifampin 20 mg/kg
  AUC: 333 ± 64 ng·h/mL
  Cmax: 994 ± 148 ng/mL
[1]; perpetrator vehicle
  AUC: 102 ± 42 ng·h/mL
  Cmax: 406 ± 186 ng/mL

## CCc1nc(C(N)=O)c(Nc2ccc(N3CCC(N4CCN(C)CC4)CC3)c(OC)c2)nc1NC1CCOCC1 [Gilteritinib, gilteritinib]
[2]; [4]
  AUC: 6440 ng·h/mL
  Cmax: 688 ± 97 ng/mL
[2]; [5]
  AUC: 6980 ng·h/mL
  Cmax: 787 ± 102 ng/mL
[2]; [6]
  AUC: 4830 ng·h/mL
  Cmax: 507 ± 28 ng/mL
[2]; [7]
  AUC: 4930 ng·h/mL
  Cmax: 593 ± 87 ng/mL
[2]; [8]
  AUC: 5130 ng·h/mL
  Cmax: 502 ± 113 ng/mL
[2]; [9]
  AUC: 4960 ng·h/mL
  Cmax: 469 ± 51 ng/mL
[2]; [10]
  AUC: 4370 ng·h/mL
  Cmax: 421 ± 20 ng/mL
[2]; [11]
  AUC: 4410 ng·h/mL
  Cmax: 440 ± 86 ng/mL

## CNC(=O)c1ccccc1Nc1nc(Nc2ccc(N3CCNCC3)cc2)ncc1Cl [CTx-0294885]
[3]
  EC50: 30.1 nM
